# Source: US20100255054A1, “PHARMACEUTICAL COMPOSITION FOR TREATMENT AND PREVENTION OF RESTENOSIS” (priority 2006, published 2010)
# Columns and labels:
# [1] = test system: vascular smooth muscle cells; assay: Vascular smooth muscle cell proliferation (PDGF-induced, WST cell counting kit); assay type: cell-based, rat
# Description: For vascular smooth muscle cell cultivation, vascular smooth muscle cells were isolated from rat aorta and they were primarily cultured. The vascular smooth muscle cells were cultured and grown in a culture solution containing 20% fetal bovine serum (FBS) at 37° C. under 5% CO2. The cells obtained in this process were transferred to a new culture plate for experiments. The cells used in the experiments were initial cells which had been subcultured 4 to 7 times. In order to activate NQO1, the vascular smooth muscle cells, when the cell mass reached 80 to 90%, were cultured in a medium containing 0.5% fetal bovine serum for 24 hours to keep the cells in the resting state. […]
# Primary cultures of vascular smooth muscle cells were seeded onto 96-well plates, cultured to reach cell mass of 70%, and transferred and again cultured in a medium containing 0.5% fetal bovine serum for 24 hours. […] After further reacting for 4 hours, absorbencies were measured at 450 nm using an ELISA reader to examine the cell proliferation rate.
# In order to determine the effects of Compound 1 on vascular smooth muscle cell proliferation, the cells cultured in a 96-well plate were kept in the resting state, followed by pre-treating them with Compound 1 by varying the concentration, and by reacting them with PDGF for 48 hours. The number of living cells was counted using a WST cell counting kit. […]
# [2] = test system: Acetyl-CoA carboxylase (ACC); assay: Western blot of phosphorylated ACC in vascular smooth muscle cells; assay type: cell-based, rat; details: 0.5 μM, compared with the control group, FIG. 3
# Description: (§1) For vascular smooth muscle cell cultivation, vascular smooth muscle cells were isolated from rat aorta and they were primarily cultured. The vascular smooth muscle cells were cultured and grown in a culture solution containing 20% fetal bovine serum (FBS) at 37° C. under 5% CO2. The cells obtained in this process were transferred to a new culture plate for experiments. The cells used in the experiments were initial cells which had been subcultured 4 to 7 times. In order to activate NQO1, the vascular smooth muscle cells, when the cell mass reached 80 to 90%, were cultured in a medium containing 0.5% fetal bovine serum for 24 hours to keep the cells in the resting state. Such cells were treated with the compound of Example 1 (hereinafter, referred to as Compound 1).
# (§2) The vascular smooth muscle cells collected after reacting with Compound 1 were lysed in RIPA buffer (50 mM Tris-HCl, 150 mM NaCl, 5 mM EDTA, 1% NP-40, 1 mM PMSF, 1 mM […], and 1 mg/ml protease inhibitor) to isolate whole proteins. The isolated proteins of each sample were quantified. 25 μg of the proteins were mixed with a sample buffer and boiled for 5 minutes. […]
# Primary cultures of vascular smooth muscle cells were kept in the resting state and then treated with 0.5 μM of Compound 1. […] Quantification was carried out using antibodies specific for phosphorylated AMPK and Acetyl-CoA carboxylase (ACC), and for β-actin. […]
# SD rats = assay: Intimal hyperplasia after balloon angioplasty (H&E staining); assay type: in vivo, rat; details: 100 mg/kg in diet
# Description: SD rats were used for performing balloon angioplasty. Animals were housed in a breeding room maintained at a constant temperature of 22±2° C. and a 12-h light/dark (UD) cycle. The animals were divided into two groups, i.e., a control group with administration of general diet and an experiment group with administration of 100 mg/kg of Compound 1, having 4 animals in each group. The 4 animals in each group were raised in separate cages for each animal for 4 weeks, during which experiments were carried out. The animals were raised for 2 weeks before performing balloon angioplasty and 2 weeks after performing balloon angioplasty while continuing the dietary intake of the general diet and Compound 1 diet. Thereafter, their aortas were isolated to confirm hyoerplasia by means of H&E (hematoxylin and eosin) staining.
# 14 days after performing balloon angioplasty, the carotid artery was extracted from a rat. After staining the carotid artery by H&E staining, vessel intimal hyperplasia was observed. The results are presented in FIG. 6. a is a control group, b is a vessel intima after performing balloon angioplasty in the general dietary group, c is a vessel intima after performing balloon angioplasty in the 100 mg/kg of Compound 1 administration group, and d is a control group in the 100 mg/kg of Compound 1 administration group, without performing balloon angioplasty.
# NQO1 = assay: RT-PCR of NQO1 expression in vascular smooth muscle cells; assay type: cell-based, rat; details: 0.5 μM, compared with the control group, FIG. 2
# Description: A study was conducted to investigate effects of Compound 1 on the expression of NQ01 as in the following. Primary cultures of vascular smooth muscle cells were kept in the resting state and then treated with 0.5 μM of Compound 1. After reacting them for a predetermined period of time, RNA was extracted from the cells using trizol. Thereafter, DNA was amplified using NQO1 primer and then subjected to electrophoresis to confirm the expression level of NQO1.
# [3] = test system: vascular smooth muscle cells; assay: Cell cycle analysis by FACS (PI staining); assay type: cell-based, rat; details: 0.5 μM Compound 1 + PDGF and insulin, 48 hours (PDGF and insulin only: 57%), FIG. 5C
# Description: as §1
# FACS was used for cell cycle analysis. The vascular smooth muscle cells incubated in a medium containing 0.5% fetal bovine serum for 24 hours were pretreated with Compound 1 for 2 hours. The cells were treated with PDGF and insulin to induce cell proliferation and reacted for 48 hours. Thereafter, the cells were collected and passed through fixation process, followed by nuclear staining with propidium iodide (PI). Then, the cell cycle was analyzed using FACS.
# Primary cultures of vascular smooth muscle cells were treated with 0.5 μM of Compound 1, followed by reacting with PDGF and insulin for 48 hours. […]
# cyclin B = assay: Western blot of cyclin B expression in vascular smooth muscle cells; assay type: cell-based, rat; details: 0.5 μM, compared with the control group, FIG. 4B
# Description: as §1
# as §2, with “minutes. The boiled proteins were cooled and subjected to electrophoresis on a sodium dodecyl sulfate polyacrylamide gel, thereby separating the proteins by their sizes.” for “minutes.”
# rats = assay: Lipogenesis in vessels (Oil Red O staining of aortic valve and abdominal aorta); assay type: in vivo, rat
# Text: The animals were killed to isolate their hearts and abdominal aortas, and they were fixed in 4% formalin, respectively. The fixed heart tissue was immersed in an isotonic sucrose solution, and then stored in a freezer by embedding in an OCT compound. Meanwhile, the fixed abdominal aorta was incised lengthwise and prepared such that the internal vessel was exposed. The frozen heart tissue was sectioned into a thickness of 20 μm and attached onto a coating slide, while the abdominal aorta was immersed in an Oil Red O solution to perform Oil Red O staining, and they were observed.
# Rats administered with 25 mg/kg and 50 mg/kg of Compound 1, respectively, for 4 weeks had been killed, and their hearts and abdominal aortas were extracted to prepare frozen sections. The prepared sections were stained with Oil Red O, and a degree of lipid accumulation on the inner vessel wall and aortic valve was compared/observed.
# A (upper part of FIG. 7) is an aortic valve and B (bottom part of FIG. 7) is an abdominal aorta. The experiments were repeated three times to confirm the results.
# p53 = assay: Western blot of p53 expression in vascular smooth muscle cells; assay type: cell-based, rat; details: 0.5 μM, FIG. 4A
# Description: as §1
# as §2, with “minutes. The boiled proteins were cooled and subjected to electrophoresis on a sodium dodecyl sulfate polyacrylamide gel, thereby separating the proteins by their sizes.” for “minutes.”
# p21 = assay: Western blot of p21 expression in vascular smooth muscle cells; assay type: cell-based, rat; details: 0.5 μM, FIG. 4A
# Description: as §1
# as §2, with “minutes. The boiled proteins were cooled and subjected to electrophoresis on a sodium dodecyl sulfate polyacrylamide gel, thereby separating the proteins by their sizes.” for “minutes.”
# AMPK = assay: Western blot of phosphorylated AMPK in vascular smooth muscle cells; assay type: cell-based, rat; details: 0.5 μM
# Description: as §1
# The vascular smooth muscle cells collected after reacting with Compound 1 were lysed in RIPA buffer (50 mM Tris-HCl, 150 mM NaCl, 5 mM EDTA, 1% NP-40, 1 mM PMSF, 1 mM […], and 1 mg/ml protease inhibitor) to isolate whole proteins. The isolated proteins of each sample were quantified. 25 μg of the proteins were mixed with a sample buffer and boiled for 5 minutes. The boiled proteins were cooled and subjected to electrophoresis on a sodium dodecyl sulfate polyacrylamide gel, thereby separating the proteins by their sizes. These proteins were again transferred to PVDF membrane and immunoreacted with antibodies against pAMPK, pACC, p53, p21, CDK and pRb to confirm the protein expression. In addition, in order to verify whether an equal amount of protein was used, the proteins were reacted with anti-β-actin.
# Primary cultures of vascular smooth muscle cells were kept in the resting state and then treated with 0.5 μM of Compound 1. After reacting them for a predetermined period of time, the cells were collected to perform western blot. Quantification was carried out using antibodies specific for phosphorylated AMPK and Acetyl-CoA carboxylase (ACC), and for β-actin. The results were confirmed through three or more repeating experiments.
# cyclin E = assay: Western blot of cyclin E expression in vascular smooth muscle cells; assay type: cell-based, rat; details: 0.5 μM, compared with the control group, FIG. 4B
# Description: as §1
# as §2, with “minutes. The boiled proteins were cooled and subjected to electrophoresis on a sodium dodecyl sulfate polyacrylamide gel, thereby separating the proteins by their sizes.” for “minutes.”
# [4] = test system: cyclin dependent kinase (CDK); assay: Western blot of CDK in vascular smooth muscle cells; assay type: cell-based, rat; details: 0.5 μM, FIG. 4B
# Description: as §1
# as §2, with “minutes. The boiled proteins were cooled and subjected to electrophoresis on a sodium dodecyl sulfate polyacrylamide gel, thereby separating the proteins by their sizes.” for “minutes.”
# cyclin D = assay: Western blot of cyclin D expression in vascular smooth muscle cells; assay type: cell-based, rat; details: 0.5 μM, compared with the control group, FIG. 4B
# Description: as §1
# as §2, with “minutes. The boiled proteins were cooled and subjected to electrophoresis on a sodium dodecyl sulfate polyacrylamide gel, thereby separating the proteins by their sizes.” for “minutes.”
compound,measurement,setting,value
"CC1(C)CCC2=C(O1)c1ccccc1C(=O)C2=O [Compound 1, β-lapachone]",concentration dependence of the reduction in the number of vascular smooth muscle cells,"[1]; Compound 1 pre-treatment at varying concentration, PDGF 48 hours",concentration-dependent
same,number of vascular smooth muscle cells (living cells),"[1]; PDGF + Compound 1 compared with PDGF only, 48 hours, FIG. 1",significantly low
same,ACC phosphorylation,[2],decreased
same,intima/media ratio,SD rats; 14 days after balloon angioplasty (general dietary group: 2.5),1
same,intimal hyperplasia in the vessel,"SD rats; 14 days after balloon angioplasty, FIG. 6 c",low rate of intimal hyperplasia
same,expression level of NQO1,NQO1,significantly higher
same,G1 phase (percentage of cells),[3],62%
same,expression level of cyclin B,cyclin B,significantly low
same,lipogenesis in aortic valve and abdominal aorta,"rats; 25 mg/kg and 50 mg/kg for 4 weeks, Oil Red O, FIG. 7",inhibited
same,blood flow level in the heart and abdominal aorta,rats; about 50 mg/kg for 4 weeks,approximately the same as that of the normal rats
same,expression level of p53,p53,did not increase largely
same,expression of p21,p21,increased in a great amount
same,time after treatment at which phosphorylated AMPK could be observed,AMPK,1 h
same,time for which phosphorylated AMPK lasted,AMPK,6 h
same,AMPK phosphorylation,"AMPK; compared with the control group, FIG. 3",increased
same,expression level of cyclin E,cyclin E,significantly low
same,CDK activation,[4],activated through phosphorylation
same,expression level of cyclin D,cyclin D,significantly low
